From patent US10844077B2, “Thiazolyl-containing compounds for treating proliferative diseases” (Dana-Farber Cancer Institute, Inc., priority 2014, dated 2020)
Values joined by “and” are separate entries in the source; they are usually repeats but may differ in a detail not shown here. Equal entries are not always repeated.

Tests used:
Experiment in all cases: KINATIV assay
Type in all cases: cell-based
Conditions in all cases: 1 μM, 90 minutes, BCWM.1 cells
Erk5 = Erk5 (Homo sapiens (Human), UniProt Q13164)
Procedure, shortened: (§1)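 Harvest, lyse, probe: lysates take up an ATP-biotin probe directly, and ACTIVX identifies and quantifies the kinases bound.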

p70S6K = p70S6K (Homo sapiens (Human), UniProt P23443)
Procedure, shortened: as §1

CDK6 = CDK6 (Homo sapiens (Human), UniProt Q00534)
Procedure, shortened: as §1

Erk2 = Erk2 (Homo sapiens (Human), UniProt P28482)
Procedure, shortened: as §1

CASK = CASK (Homo sapiens (Human), UniProt O14936)
Procedure, shortened: as §1

p70S6Kb = p70S6Kb (Homo sapiens (Human), UniProt Q9UBS0)
Procedure, shortened: as §1

MAP3K2, MAP3K3 = system: MAP3K2, MAP3K3
Procedure, shortened: as §1

MSK1 domain1 = MSK1 domain1 (Homo sapiens (Human), UniProt O75582)
Procedure, shortened: as §1

IRAK1 = IRAK1 (Homo sapiens (Human), UniProt P51617)
Procedure, shortened: as §1

eEF2K = eEF2K (Homo sapiens (Human), UniProt O00418)
Procedure, shortened: as §1

BARK1 = BARK1 (Homo sapiens (Human), UniProt P25098)
Procedure, shortened: as §1

VRK2 = VRK2 (Homo sapiens (Human), UniProt Q86Y07)
Procedure, shortened: as §1

ZC2/TNIK = ZC2/TNIK (Homo sapiens (Human), UniProt Q9UKE5)
Procedure, shortened: as §1

IKKa = IKKa (Homo sapiens (Human), UniProt O15111)
Procedure, shortened: as §1

PHKg2 = PHKg2 (Homo sapiens (Human), UniProt P15735)
Procedure, shortened: as §1

IKKe = IKKe (Homo sapiens (Human), UniProt Q14164)
Procedure, shortened: as §1

NEK8 = NEK8 (Homo sapiens (Human), UniProt Q86SG6)
Procedure, shortened: as §1

MARK4 = MARK4 (Homo sapiens (Human), UniProt Q96L34)
Procedure, shortened: as §1

PYK2 = PYK2 (Homo sapiens (Human), UniProt Q14289)
Procedure, shortened: as §1

MLK3 = MLK3 (Homo sapiens (Human), UniProt Q16584)
Procedure, shortened: as §1

MYO3A, MYO3B = system: MYO3A, MYO3B
Procedure, shortened: as §1

PIP5K3 = PIP5K3 (Homo sapiens (Human), UniProt Q9Y2I7)
Procedure, shortened: as §1

AMPKa1 = AMPKa1 (Homo sapiens (Human), UniProt Q13131)
Procedure, shortened: as §1

CK1a = CK1a (Homo sapiens (Human), UniProt P48729)
Procedure, shortened: as §1

ABL, ARG = system: ABL, ARG
Procedure, shortened: as §1

NEK9 = NEK9 (Homo sapiens (Human), UniProt Q8TD19)
Procedure, shortened: as §1

STK33 = STK33 (Homo sapiens (Human), UniProt Q9BYT3)
Procedure, shortened: as §1

MARK3 = MARK3 (Homo sapiens (Human), UniProt P27448)
Procedure, shortened: as §1

RSK1 domain2 = RSK1 domain2 (Homo sapiens (Human), UniProt Q15418)
Procedure, shortened: as §1

EphB1 = EphB1 (Homo sapiens (Human), UniProt P54762)
Procedure, shortened: as §1

RSK1, RSK2, RSK3 domain1 = system: RSK1, RSK2, RSK3 domain1
Procedure, shortened: as §1

HPK1 = HPK1 (Homo sapiens (Human), UniProt Q92918)
Procedure, shortened: as §1

MAP3K2 = MAP3K2 (Homo sapiens (Human), UniProt Q9Y2U5)
Procedure, shortened: as §1

PIP4K2C = PIP4K2C (Homo sapiens (Human), UniProt Q8TBX8)
Procedure, shortened: as §1

FGR = FGR (Homo sapiens (Human), UniProt P09769)
Procedure, shortened: as §1

ULK3 = ULK3 (Homo sapiens (Human), UniProt Q6PHR2)
Procedure, shortened: as §1

CASK, sequence (O14936 whole entry): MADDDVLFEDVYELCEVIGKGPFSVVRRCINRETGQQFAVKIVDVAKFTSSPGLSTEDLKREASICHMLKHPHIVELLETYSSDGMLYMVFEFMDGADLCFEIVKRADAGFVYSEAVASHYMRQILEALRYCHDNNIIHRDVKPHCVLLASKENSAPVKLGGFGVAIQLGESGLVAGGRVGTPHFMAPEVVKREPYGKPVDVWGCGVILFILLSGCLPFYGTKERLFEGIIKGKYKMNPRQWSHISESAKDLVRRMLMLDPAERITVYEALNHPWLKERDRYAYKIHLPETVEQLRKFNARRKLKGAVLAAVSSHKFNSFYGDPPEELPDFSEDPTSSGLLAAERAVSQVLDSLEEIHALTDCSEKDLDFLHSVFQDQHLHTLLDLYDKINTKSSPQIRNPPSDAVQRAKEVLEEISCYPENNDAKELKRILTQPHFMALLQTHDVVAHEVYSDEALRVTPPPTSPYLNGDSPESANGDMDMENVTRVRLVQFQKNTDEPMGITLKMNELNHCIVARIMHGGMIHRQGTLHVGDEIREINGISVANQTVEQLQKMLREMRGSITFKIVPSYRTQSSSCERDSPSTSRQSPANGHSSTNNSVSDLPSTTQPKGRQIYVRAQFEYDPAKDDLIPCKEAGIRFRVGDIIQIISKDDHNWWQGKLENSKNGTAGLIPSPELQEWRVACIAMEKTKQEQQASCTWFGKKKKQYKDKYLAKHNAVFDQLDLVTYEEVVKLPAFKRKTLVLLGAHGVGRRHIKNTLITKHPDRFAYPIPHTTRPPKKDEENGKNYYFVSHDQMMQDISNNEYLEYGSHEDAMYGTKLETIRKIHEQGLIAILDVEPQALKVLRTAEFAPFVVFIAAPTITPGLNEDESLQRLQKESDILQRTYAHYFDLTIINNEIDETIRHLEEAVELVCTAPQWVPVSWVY
EphB1, sequence (P54762 18-984): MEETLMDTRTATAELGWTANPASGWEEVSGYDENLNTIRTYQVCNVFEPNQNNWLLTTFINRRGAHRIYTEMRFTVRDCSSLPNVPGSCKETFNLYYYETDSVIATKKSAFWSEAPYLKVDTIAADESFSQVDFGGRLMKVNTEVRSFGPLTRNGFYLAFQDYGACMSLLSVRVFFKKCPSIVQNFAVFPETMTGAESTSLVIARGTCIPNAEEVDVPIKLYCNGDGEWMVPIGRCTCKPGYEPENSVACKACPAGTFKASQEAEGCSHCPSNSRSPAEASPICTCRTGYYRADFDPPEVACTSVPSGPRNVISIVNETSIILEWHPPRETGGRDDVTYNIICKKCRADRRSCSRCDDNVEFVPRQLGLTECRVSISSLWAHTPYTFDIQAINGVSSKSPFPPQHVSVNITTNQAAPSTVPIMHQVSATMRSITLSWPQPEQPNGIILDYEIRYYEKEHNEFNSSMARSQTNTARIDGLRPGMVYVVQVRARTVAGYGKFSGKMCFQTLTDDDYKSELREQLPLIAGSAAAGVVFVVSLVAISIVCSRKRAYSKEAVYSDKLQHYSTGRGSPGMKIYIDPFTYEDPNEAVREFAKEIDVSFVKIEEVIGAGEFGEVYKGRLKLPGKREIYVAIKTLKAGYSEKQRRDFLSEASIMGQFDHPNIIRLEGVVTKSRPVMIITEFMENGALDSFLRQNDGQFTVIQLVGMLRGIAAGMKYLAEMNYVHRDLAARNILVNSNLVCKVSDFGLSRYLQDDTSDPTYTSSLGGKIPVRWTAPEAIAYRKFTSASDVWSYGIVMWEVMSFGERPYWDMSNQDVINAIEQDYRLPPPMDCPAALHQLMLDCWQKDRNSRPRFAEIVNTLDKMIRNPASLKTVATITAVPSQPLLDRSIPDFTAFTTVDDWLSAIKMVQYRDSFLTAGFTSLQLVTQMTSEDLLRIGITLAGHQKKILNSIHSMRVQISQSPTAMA
IRAK1, sequence (P51617 whole entry): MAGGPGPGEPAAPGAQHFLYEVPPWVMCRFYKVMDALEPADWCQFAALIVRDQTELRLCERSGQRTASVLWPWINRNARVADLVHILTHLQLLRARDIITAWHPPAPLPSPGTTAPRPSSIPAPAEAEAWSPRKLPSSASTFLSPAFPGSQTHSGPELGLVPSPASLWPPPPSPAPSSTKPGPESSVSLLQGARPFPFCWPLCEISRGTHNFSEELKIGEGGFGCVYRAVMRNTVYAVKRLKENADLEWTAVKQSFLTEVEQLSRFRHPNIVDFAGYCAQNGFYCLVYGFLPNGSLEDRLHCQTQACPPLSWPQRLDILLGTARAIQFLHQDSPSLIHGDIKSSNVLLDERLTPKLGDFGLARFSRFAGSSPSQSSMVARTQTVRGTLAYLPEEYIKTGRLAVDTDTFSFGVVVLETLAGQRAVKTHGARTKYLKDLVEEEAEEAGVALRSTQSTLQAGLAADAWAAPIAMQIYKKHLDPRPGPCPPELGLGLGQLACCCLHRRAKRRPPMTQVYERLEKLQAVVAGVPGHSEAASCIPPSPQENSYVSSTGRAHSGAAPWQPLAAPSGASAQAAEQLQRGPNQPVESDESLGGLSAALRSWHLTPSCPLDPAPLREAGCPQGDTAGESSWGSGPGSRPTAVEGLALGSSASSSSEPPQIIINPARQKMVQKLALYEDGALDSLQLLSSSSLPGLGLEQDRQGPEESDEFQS
VRK2, sequence (Q86Y07 whole entry): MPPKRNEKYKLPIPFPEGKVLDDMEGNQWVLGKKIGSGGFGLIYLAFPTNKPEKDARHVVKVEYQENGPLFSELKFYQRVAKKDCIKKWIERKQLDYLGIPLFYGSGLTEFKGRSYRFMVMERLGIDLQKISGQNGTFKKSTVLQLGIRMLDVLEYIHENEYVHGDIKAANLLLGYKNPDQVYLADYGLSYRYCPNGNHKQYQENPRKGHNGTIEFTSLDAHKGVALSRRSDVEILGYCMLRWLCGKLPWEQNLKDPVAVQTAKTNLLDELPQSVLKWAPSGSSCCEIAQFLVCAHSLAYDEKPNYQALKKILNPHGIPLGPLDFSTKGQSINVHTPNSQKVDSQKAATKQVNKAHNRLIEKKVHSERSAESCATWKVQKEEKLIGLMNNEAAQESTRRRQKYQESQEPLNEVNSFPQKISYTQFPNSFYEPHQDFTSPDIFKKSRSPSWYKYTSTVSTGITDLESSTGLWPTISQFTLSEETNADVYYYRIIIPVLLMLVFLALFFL
NEK8, sequence (Q86SG6 whole entry): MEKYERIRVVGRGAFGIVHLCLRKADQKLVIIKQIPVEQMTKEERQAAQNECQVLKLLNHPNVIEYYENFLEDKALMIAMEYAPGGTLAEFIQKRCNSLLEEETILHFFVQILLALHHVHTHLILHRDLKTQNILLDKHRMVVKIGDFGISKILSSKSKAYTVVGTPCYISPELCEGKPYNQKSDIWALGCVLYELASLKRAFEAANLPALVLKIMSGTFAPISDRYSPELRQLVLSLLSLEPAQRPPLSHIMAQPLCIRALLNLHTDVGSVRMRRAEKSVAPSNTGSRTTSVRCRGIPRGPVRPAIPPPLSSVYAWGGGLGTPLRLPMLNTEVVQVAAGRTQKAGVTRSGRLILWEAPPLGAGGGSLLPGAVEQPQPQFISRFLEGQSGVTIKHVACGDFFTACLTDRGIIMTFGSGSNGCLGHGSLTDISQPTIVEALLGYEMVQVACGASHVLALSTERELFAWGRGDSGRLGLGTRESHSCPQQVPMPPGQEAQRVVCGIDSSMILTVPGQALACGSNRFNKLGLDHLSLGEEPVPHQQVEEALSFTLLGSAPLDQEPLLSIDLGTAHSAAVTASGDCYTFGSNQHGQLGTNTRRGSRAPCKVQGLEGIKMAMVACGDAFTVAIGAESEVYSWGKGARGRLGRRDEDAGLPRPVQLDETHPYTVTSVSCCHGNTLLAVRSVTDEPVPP
BARK1, sequence (P25098 whole entry): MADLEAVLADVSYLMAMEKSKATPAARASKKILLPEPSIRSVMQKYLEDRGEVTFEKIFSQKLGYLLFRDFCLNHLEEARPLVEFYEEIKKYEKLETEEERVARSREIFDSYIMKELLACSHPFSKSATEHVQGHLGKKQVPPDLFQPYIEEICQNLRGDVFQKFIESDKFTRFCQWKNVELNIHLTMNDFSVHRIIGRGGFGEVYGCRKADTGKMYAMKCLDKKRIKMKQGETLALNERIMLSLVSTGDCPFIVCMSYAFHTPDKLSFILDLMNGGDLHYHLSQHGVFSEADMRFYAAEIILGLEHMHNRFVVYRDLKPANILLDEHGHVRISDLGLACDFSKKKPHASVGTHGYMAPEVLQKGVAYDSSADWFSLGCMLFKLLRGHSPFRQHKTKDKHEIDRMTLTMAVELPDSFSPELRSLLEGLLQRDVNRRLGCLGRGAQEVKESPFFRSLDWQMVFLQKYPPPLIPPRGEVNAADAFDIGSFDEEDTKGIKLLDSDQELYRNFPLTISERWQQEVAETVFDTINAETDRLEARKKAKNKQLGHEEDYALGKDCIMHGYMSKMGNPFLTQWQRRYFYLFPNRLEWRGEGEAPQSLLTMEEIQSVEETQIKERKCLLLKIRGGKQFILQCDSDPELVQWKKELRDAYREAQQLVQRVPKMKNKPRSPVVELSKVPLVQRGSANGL
PIP4K2C, sequence (Q8TBX8 whole entry): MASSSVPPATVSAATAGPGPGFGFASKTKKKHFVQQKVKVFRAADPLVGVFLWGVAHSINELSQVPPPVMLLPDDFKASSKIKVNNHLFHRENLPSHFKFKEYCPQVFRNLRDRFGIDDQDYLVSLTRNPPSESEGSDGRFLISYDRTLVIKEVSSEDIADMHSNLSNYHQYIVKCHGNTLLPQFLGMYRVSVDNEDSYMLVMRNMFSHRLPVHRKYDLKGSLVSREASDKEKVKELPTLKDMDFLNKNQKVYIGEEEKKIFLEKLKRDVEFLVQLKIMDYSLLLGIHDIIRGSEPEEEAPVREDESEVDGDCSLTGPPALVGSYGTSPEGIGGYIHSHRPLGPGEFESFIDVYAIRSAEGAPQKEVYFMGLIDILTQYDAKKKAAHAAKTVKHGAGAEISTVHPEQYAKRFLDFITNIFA

SMILES	% change of MS signal compared to control sample (Erk5) [%]	% change of MS signal compared to control sample (p70S6K) [%]	% change of MS signal compared to control sample (CDK6) [%]	% change of MS signal compared to control sample (Erk2) [%]	% change of MS signal compared to control sample (CASK) [%]	% change of MS signal compared to control sample (p70S6Kb) [%]	% change of MS signal compared to control sample (MAP3K2, MAP3K3) [%]	% change of MS signal compared to control sample (MSK1 domain1) [%]	% change of MS signal compared to control sample (IRAK1) [%]	% change of MS signal compared to control sample (eEF2K) [%]	% change of MS signal compared to control sample (BARK1) [%]	% change of MS signal compared to control sample (VRK2) [%]	% change of MS signal compared to control sample (ZC2/TNIK) [%]	% change of MS signal compared to control sample (IKKa) [%]	% change of MS signal compared to control sample (PHKg2) [%]	% change of MS signal compared to control sample (IKKe) [%]	% change of MS signal compared to control sample (NEK8) [%]	% change of MS signal compared to control sample (MLK3) [%]	% change of MS signal compared to control sample (MYO3A, MYO3B) [%]	% change of MS signal compared to control sample (PIP5K3) [%]	further results
C=CC(=O)N1CCC(CNc2nccc(Nc3ncc(C(=O)Nc4c(C)cccc4C)s3)n2)C1 (racemic) [Example I-8]	−11.4	−36.8	4.5	−0.1	43.0	−22.7	19.4	−45.5	13.6	−1.5	−19.6	3.6	19.0	−4.2	6.4	−5.9	13.1	11.7	23.1	4.2	% change of MS signal compared to control sample (MARK4): −0.4% and 1.6%; % change of MS signal compared to control sample (PYK2): 20.3% and 25.5%; % change of MS signal compared to control sample (AMPKa1): −0.6%; % change of MS signal compared to control sample (CK1a): 14.9%; % change of MS signal compared to control sample (ABL, ARG): >90% and >97%; % change of MS signal compared to control sample (NEK9): −1.3% and −0.3%; % change of MS signal compared to control sample (STK33): 29.8%; % change of MS signal compared to control sample (MARK3): 7.8%; % change of MS signal compared to control sample (RSK1 domain2): 0.5%; % change of MS signal compared to control sample (EphB1): >97%; % change of MS signal compared to control sample (RSK1, RSK2, RSK3 domain1): −55.6%; % change of MS signal compared to control sample (HPK1): 32.8% and 24.6%; % change of MS signal compared to control sample (MAP3K2): 3.5%; % change of MS signal compared to control sample (PIP4K2C): 97.6% and 85.7%; % change of MS signal compared to control sample (FGR): 86.0%
C=CC(=O)N1CC[C@@H](Nc2nccc(Nc3ncc(C(=O)Nc4c(C)cccc4C)s3)n2)C1 [Example I-4]	−9.0	−102.3	7.8	−3.2	23.2	−72.4	24.8	−15.8	20.3	0.3	−8.1	−30.6	48.8	6.4	−15.6	2.2	14.6	−27.2	15.9	14.5	% change of MS signal compared to control sample (PYK2): 27.3%; % change of MS signal compared to control sample (ULK3): 22.5% and 21.9%; % change of MS signal compared to control sample (AMPKa1): 10.1%; % change of MS signal compared to control sample (CK1a): −41.3%; % change of MS signal compared to control sample (ABL, ARG): >90% and 91.7%; % change of MS signal compared to control sample (NEK9): −0.1% and 4.4%; % change of MS signal compared to control sample (STK33): −23.0%; % change of MS signal compared to control sample (MARK3): 13.5%; % change of MS signal compared to control sample (RSK1 domain2): 12.5%; % change of MS signal compared to control sample (EphB1): >97%; % change of MS signal compared to control sample (RSK1, RSK2, RSK3 domain1): −44.0%; % change of MS signal compared to control sample (HPK1): 26.6%; % change of MS signal compared to control sample (MAP3K2): 12.1%; % change of MS signal compared to control sample (PIP4K2C): 71.0% and 43.0%; % change of MS signal compared to control sample (FGR): 87.0%
C=CC(=O)N1CCC(Cn2ccc(Nc3ncc(C(=O)Nc4c(C)cccc4Cl)s3)n2)C1 (centres unmarked) [II-1]	−14.2	−65.4	6.0	−5.8	29.4	−57.1	17.1	−35.0	26.3	−3.8	−23.3	5.2	−10.0	−2.1	−9.1	−1.0	6.5	−18.0	12.9	16.3	% change of MS signal compared to control sample (MARK4): 12.8% and 9.7%; % change of MS signal compared to control sample (ULK3): 22.4% and 22.8%; % change of MS signal compared to control sample (AMPKa1): 5.1%; % change of MS signal compared to control sample (CK1a): −14.4%; % change of MS signal compared to control sample (ABL, ARG): 76.1% and 39.5%; % change of MS signal compared to control sample (NEK9): −1.0% and −0.1%; % change of MS signal compared to control sample (STK33): 11.0%; % change of MS signal compared to control sample (MARK3): 18.4%; % change of MS signal compared to control sample (RSK1 domain2): 14.0%; % change of MS signal compared to control sample (EphB1): 91.0%; % change of MS signal compared to control sample (RSK1, RSK2, RSK3 domain1): −52.0%; % change of MS signal compared to control sample (HPK1): 23.0% and 12.1%; % change of MS signal compared to control sample (MAP3K2): 21.3%; % change of MS signal compared to control sample (FGR): 87.8%
